From PubChem BioAssay AID330 (DTP/NCI, 2004) come the findings set out here.

This assay relates to P388 leukemia ip, CD2F1 mice, survival T/C. Briefly: NCI In Vivo Anticancer Drug Screen. Data for tumor model P388 Leukemia (intraperitoneal) in CD2F1 (CDF1) mice. The conditions noted are these: endpoint: median survival time, higher = longer survival. Put shortly: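 Mice carrying the transplanted tumor received test compound or vehicle. Survival was recorded in each group, and the value is the treated-group measurement divided by that of the vehicle-treated control group.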

[1] abbreviates: dose: 60.0 mg/kg/injection, schedule: Q01DX005 (ip), vehicle: saline with Tween-80.
[2] abbreviates: dose: 120.0 mg/kg/injection, schedule: Q01DX005 (ip), vehicle: saline with Tween-80.
Setting [3] is: dose: 240.0 mg/kg/injection, schedule: Q01DX005 (ip), vehicle: saline with Tween-80.
Setting [4] is: dose: 50.0 mg/kg/injection, schedule: Q01DX009 (ip), vehicle: Klucel (hydroxypropylcellulose) (HPC).
The mark [5] stands for this setting: dose: 100.0 mg/kg/injection, schedule: Q01DX009 (ip), vehicle: Klucel (hydroxypropylcellulose) (HPC).
Where [6] appears, read: dose: 200.0 mg/kg/injection, schedule: Q01DX009 (ip), vehicle: Klucel (hydroxypropylcellulose) (HPC).
[7] abbreviates: dose: 100.0 mg/kg/injection, schedule: Q01DX009 (ip), vehicle: saline.
Where [8] appears, read: dose: 50.0 mg/kg/injection, schedule: Q01DX005 (ip), vehicle: Klucel (hydroxypropylcellulose) (HPC).
Setting [9] is: dose: 100.0 mg/kg/injection, schedule: Q01DX005 (ip), vehicle: Klucel (hydroxypropylcellulose) (HPC).
Where [10] appears, read: dose: 200.0 mg/kg/injection, schedule: Q01DX005 (ip), vehicle: Klucel (hydroxypropylcellulose) (HPC).
Where [11] appears, read: dose: 25.0 mg/kg/injection, schedule: Q01DX005 (ip), vehicle: saline.
Where [12] appears, read: dose: 100.0 mg/kg/injection, schedule: Q04DX003 (ip), vehicle: Klucel (hydroxypropylcellulose) (HPC).
Setting [13] is: dose: 200.0 mg/kg/injection, schedule: Q04DX003 (ip), vehicle: Klucel (hydroxypropylcellulose) (HPC).
Setting [14] is: dose: 400.0 mg/kg/injection, schedule: Q04DX003 (ip), vehicle: Klucel (hydroxypropylcellulose) (HPC).
Setting [15] is: dose: 50.0 mg/kg/injection, schedule: Q01DX005 (ip), vehicle: saline with Tween-80.
The mark [16] stands for this setting: dose: 100.0 mg/kg/injection, schedule: Q01DX005 (ip), vehicle: saline with Tween-80.
[17] abbreviates: dose: 200.0 mg/kg/injection, schedule: Q01DX005 (ip), vehicle: saline with Tween-80.

Several values for one entry are separate records, joined by “and”; a condition that tells them apart may be missing. Identical values can stand only once. Inconclusive results and toxic doses are left out. Peptide text beside a SMILES is read from it.

On to `COC(=O)c1cc(-c2ccccc2Cl)n2c(N)nnc2n1`, for which the T/C is, setting by setting: under setting [1], 118 % of control; under setting [2], 105 % of control; under setting [3], 101 % of control.

With `O=C(COc1ccc(Cl)cc1Cl)N1CCNC1=O`, the T/C was 103 % of control under setting [4], 98 % of control under setting [5] and 97 % of control under setting [6].

For the compound `CC(C)=NNc1cc(N)nc2c1ncn2C1OC(CO)C(O)C1O` (configuration not stated), the T/C reads like this: (dose: 12.5 mg/kg/injection, schedule: Q01DX005 (ip), vehicle: water) 97 % of control; (dose: 25.0 mg/kg/injection, schedule: Q01DX005 (ip), vehicle: water) 94 % of control; (dose: 50.0 mg/kg/injection, schedule: Q01DX005 (ip), vehicle: water) 98 % of control; (dose: 100.0 mg/kg/injection, schedule: Q01DX005 (ip), vehicle: water) 96 % of control; (dose: 200.0 mg/kg/injection, schedule: Q01DX005 (ip), vehicle: water) 106 % of control.

Turning to `O=S(=O)(CC(O)C(Cl)(Cl)Cl)NNc1ccccc1` (configuration not stated), the T/C is, setting by setting: (dose: 50.0 mg/kg/injection, schedule: Q01DX009 (ip), vehicle: saline) 99 % of control; under setting [7], 112 % of control.

In the case of `COc1cc(C2N3Cc4ccccc4CN2c2ccccc23)cc(OC)c1OC`, the T/C (dose: 100.0 mg/kg/injection, schedule: Q01DX001 (ip), vehicle: Klucel (hydroxypropylcellulose) (HPC)) is 101 % of control; the T/C (dose: 200.0 mg/kg/injection, schedule: Q01DX001 (ip), vehicle: Klucel (hydroxypropylcellulose) (HPC)) is 99 % of control; the T/C (dose: 400.0 mg/kg/injection, schedule: Q01DX001 (ip), vehicle: Klucel (hydroxypropylcellulose) (HPC)) is 102 % of control.

Regarding `Cc1ncc(CO)c(C2NCCS2)c1O` (configuration not stated), the T/C is 100 % of control under setting [1], 107 % of control under setting [2] and 107 % of control under setting [3].

Consider `Cc1nc2c(cnn2C)c(=O)[nH]1`, for which the T/C is 96 % of control under setting [8], 98 % of control under setting [9] and 97 % of control under setting [10].

Consider `Cc1cc[c]([Sb]2[O]C(CO)C(C(O)C(O)C(=O)O)[O]2)cc1` (configuration not stated), for which the T/C under setting [11] was 101 % of control and 104 % of control and 105 % of control.

As to `CC1(C)NC(=O)N(CCCCCCN2C(=O)NC(C)(C)C2=O)C1=O`, the T/C under setting [8] is 94 % of control; the T/C under setting [9] was 102 % of control; the T/C (dose: 400.0 mg/kg/injection, schedule: Q01DX005 (ip), vehicle: Klucel (hydroxypropylcellulose) (HPC)) is 90 % of control.

As for `C=C1C(=O)C23C(OC(=O)c4ccccc4)C1CCC2C12COC3(O)C(O)C1C(C)(C)CCC2O` (configuration not stated), the T/C (dose: 3.75 mg/kg/injection, schedule: Q01DX009 (ip), vehicle: saline with Tween-80) was 103 % of control and 107 % of control and 110 % of control; the T/C (dose: 7.5 mg/kg/injection, schedule: Q01DX009 (ip), vehicle: saline with Tween-80) was 102 % of control and 112 % of control and 120 % of control; the T/C (dose: 15.0 mg/kg/injection, schedule: Q01DX009 (ip), vehicle: saline with Tween-80) was 100 % of control and 118 % of control and 119 % of control; the T/C (dose: 30.0 mg/kg/injection, schedule: Q01DX009 (ip), vehicle: saline with Tween-80) was 109 % of control and 115 % of control.

On to `O=C(CCCC(=O)Nc1cccc([N+](=O)[O-])c1)CC(=O)c1ccc([N+](=O)[O-])cc1`, for which the T/C was 100 % of control under setting [1], 102 % of control under setting [2] and 103 % of control under setting [3].

For `O=P(C(=S)Nc1ccc(S(=O)(=O)N2CCCCC2)cc1)(c1ccccc1)c1ccccc1`, the T/C reads like this: under setting [4], 97 % of control; under setting [5], 95 % of control; under setting [6], 98 % of control.

As for `O=C1CC2(CCCCC2)C(=O)N1c1ccc(N2C(=O)CC3(CCCCC3)C2=O)cc1`, the T/C is, setting by setting: under setting [12], 99 % of control; under setting [13], 93 % of control; under setting [14], 96 % of control.

Consider `CS(=O)(=O)CS(=O)(=O)OCCF`, for which the T/C is, setting by setting: (dose: 12.5 mg/kg/injection, schedule: Q01DX005 (ip), vehicle: saline) 188 % of control; under setting [11], 258 % of control and 285 % of control; (dose: 50.0 mg/kg/injection, schedule: Q01DX005 (ip), vehicle: saline) 285 % of control.

For `CCCCn1/c(=N/N=Nc2ccccc2)sc2ccccc21`, the T/C runs as follows: (dose: 7.5 mg/kg/injection, schedule: Q01DX005 (ip), vehicle: saline with Tween-80) 115 % of control; (dose: 15.0 mg/kg/injection, schedule: Q01DX005 (ip), vehicle: saline with Tween-80) 117 % of control; (dose: 30.0 mg/kg/injection, schedule: Q01DX005 (ip), vehicle: saline with Tween-80) 118 % of control.

With `C[S+](C)C`, the T/C by setting is: under setting [7], 110 % of control; (dose: 200.0 mg/kg/injection, schedule: Q01DX009 (ip), vehicle: saline) 110 % of control; (dose: 400.0 mg/kg/injection, schedule: Q01DX009 (ip), vehicle: saline) 110 % of control.

On to `CC(CCOCCCBr)OC(=O)CCOCCC(=O)OC(C)CCOCCCBr` (configuration not stated), for which the T/C was 100 % of control under setting [8], 98 % of control under setting [9] and 100 % of control under setting [10].

As to `NC(=O)C(O)C1OC(COCc2ccccc2)C(OCc2ccccc2)C1OCc1ccccc1` (configuration not stated), the T/C (dose: 12.5 mg/kg/injection, schedule: Q01DX009 (ip), vehicle: distilled water + Tween-80) is 90 % of control and 104 % of control; the T/C (dose: 25.0 mg/kg/injection, schedule: Q01DX009 (ip), vehicle: distilled water + Tween-80) was 92 % of control and 95 % of control; the T/C (dose: 50.0 mg/kg/injection, schedule: Q01DX009 (ip), vehicle: distilled water + Tween-80) was 106 % of control and 100 % of control; the T/C (dose: 100.0 mg/kg/injection, schedule: Q01DX009 (ip), vehicle: distilled water + Tween-80) is 100 % of control and 89 % of control; the T/C (dose: 200.0 mg/kg/injection, schedule: Q01DX009 (ip), vehicle: distilled water + Tween-80) was 104 % of control and 97 % of control.

Consider `CC(C)C(NC(=O)C(N)CCC(=O)O)C(=O)O` (stereo not drawn) (H-Glu-Val-OH; configuration not given here), for which the T/C is 93 % of control under setting [15], 100 % of control under setting [16] and 93 % of control under setting [17].

As for `CCOC(=O)C(CSC(c1ccccc1)(c1ccccc1)c1ccccc1)NC(=O)c1csc(CCNC(=O)c2ccccc2)n1` (configuration not stated), the T/C is, setting by setting: (dose: 4.0 mg/kg/injection, schedule: Q01DX009 (ip), vehicle: other) 100 % of control; (dose: 8.0 mg/kg/injection, schedule: Q01DX009 (ip), vehicle: other) 99 % of control; (dose: 16.0 mg/kg/injection, schedule: Q01DX009 (ip), vehicle: other) 91 % of control; (dose: 32.0 mg/kg/injection, schedule: Q01DX009 (ip), vehicle: other) 89 % of control; (dose: 62.5 mg/kg/injection, schedule: Q01DX009 (ip), vehicle: other) 113 % of control; (dose: 64.0 mg/kg/injection, schedule: Q01DX009 (ip), vehicle: other) 89 % of control. The T/C runs as follows: (dose: 125.0 mg/kg/injection, schedule: Q01DX009 (ip), vehicle: other) 108 % of control; (dose: 250.0 mg/kg/injection, schedule: Q01DX009 (ip), vehicle: other) 108 % of control.

For `O=C1c2ccccc2C(=O)N1C(=NC1CCCCC1)c1ccccc1`, the T/C runs as follows: under setting [12], 104 % of control; under setting [13], 101 % of control; under setting [14], 109 % of control.

Turning to `Nc1c(C(=O)NCCc2ccccc2)c2nc3c(C(=O)NCCc4ccccc4)ccc(Br)c3oc-2c(Br)c1=O`, the T/C reads like this: under setting [15], 89 % of control; under setting [16], 94 % of control; under setting [17], 99 % of control.

On to `COc1cccc2c1C(=O)c1c(O)c3c(c(O)c1C2=O)C[C@@](O)(/C(C)=N\NC(N)=O)C[C@@H]3OC1CC(N)C(O)C(C)O1` (some centres not stated), for which, for the setting “dose: 1.56 mg/kg/injection, schedule: Q01DX009 (ip), vehicle: saline”, the T/C is 95 % of control.

Consider `Cc1cc2oc(=O)cc(C(=O)O)c2c(=O)o1`, for which the T/C under setting [12] was 102 % of control, the T/C under setting [13] is 95 % of control and the T/C under setting [14] was 87 % of control.
